Drawing on patent publication US6924278B2, “Aroyl-piperazine derivatives, their preparation and their use as tachykinin antagonists” (Fujisawa Pharmaceutical Co., Ltd., priority 1997, dated 2005), this text covers melting point and inhibition for 19 molecules.

As usually defined, the melting point is the temperature of the solid-liquid transition. What is called inhibition is the change of the read-out against control, counted positive when it falls.

The target in data set [1] is T1, h-NK1 receptors (Homo sapiens, UniProt P25103).
T1 construct: expressed in transfected cells; host or cells: CHO cells (permanent expression), crude cell membranes
In words: Evaluation of NK1 antagonist transport efficiency to the central nervous system using a h-NK1 receptor binding assay (brain extract after i.v. dosing of rats). The settings on record: 5 min; compound extracted from brain of male SD rats 5 min after i.v. injection at the dose of 1 mg/kg; CHO cell membranes expressing h-NK1; read-out: inhibition rate of 125I-BH-Substance P binding to h-NK1 receptors. The protocol:
A. Evaluation of NK1 Antagonist Transport Efficiency to the Cental Nervous System using a h-NK1 Receptor Binding Assay
(1) Administration of Test Compound and Extraction of the Compound from Brain
Male SD rats were given an i.v. injection of a solution containing a test compound (1 mg/kg). 5 Min later the animals were anesthetized by ether, bled and perfused through the aorta ascendens with 20 ml of saline. The brain was rapidly removed, weighed and homogenized in 4 vol. ice-cold distilled water by using Polytoron (KINEMATICA). To extract the test compound, 500 μl of the homogenate, 100 μl of methanol, 500 μl of 0.1 N NaOH and 4 ml of ethyl acetate were mixed by shaking for 10 min at room temperature. The organic phase (2.5 ml) was recovered by centrifugation at 3,000 rpm for 10 min, dried and dissolved in dimethyl sulfoxide.
(2) h-NK1 Receptor Binding Assay
(a) Crude CHO Cell Membrane Preparation
CHO cells permanently expressing h-NK1 receptors were harvested and homogenized with a Dounce homogenizer at 4° C. in a buffer (0.25 M sucrose, 25 mM Tris-HCl (pH 7.4), 10 mM MgCl2, 1 mM EDTA, 5 μg/ml p-APMSF). The homogenate was centrifuged (500×g, 10 min), and the pellet was resuspended in the same buffer, homogenized, and centrifuged. The two supernatants were combined and centrifuged (100,000×g, 1 hour). The crude cell membranes thus isolated were resuspended in a buffer (25 mM Tris-HCl (pH 7.4), 10 mM MgCl2, 1 mM. EDTA, 5 μg/ml p-APMSF) and stored at −80° C. until use.
(b) ^125I-BH-Substance P Binding to the Prepared Membrane
Cell membranes (6 μg/ml) were incubated with ^125I-BH-Substance P (0.1 nM) with or without the extracted compounds in 0.25 ml of a medium (50 mM Tris-HCl (pH 7.4), 5 mM MnCl2, 20 μg/ml chymostatin, 40 μg/ml bacitracin, 4 μg/ml leupeptin, 5 μg/ml p-APMSF, 200 μg/ml BSA) at 22° C. for 90 min. At the end of the incubation period, the contents were quickly filtered through a Blue Mat 11740 filter (pretreated with 0.1% polyethylenimine for 3 hours prior to use) by using SKATRON Cell Harvester. The filter was then washed with a washing buffer (50 mM Tris-HCl (pH 7.4), 5 mM MnCl2). The radioactivity was counted by using an auto gamma counter (Packard RIASTAR 5420A). All data presented are specific binding defined as that displaceable by 3 μM unlabeled Substance P.

T1 sequence (P25103 whole entry): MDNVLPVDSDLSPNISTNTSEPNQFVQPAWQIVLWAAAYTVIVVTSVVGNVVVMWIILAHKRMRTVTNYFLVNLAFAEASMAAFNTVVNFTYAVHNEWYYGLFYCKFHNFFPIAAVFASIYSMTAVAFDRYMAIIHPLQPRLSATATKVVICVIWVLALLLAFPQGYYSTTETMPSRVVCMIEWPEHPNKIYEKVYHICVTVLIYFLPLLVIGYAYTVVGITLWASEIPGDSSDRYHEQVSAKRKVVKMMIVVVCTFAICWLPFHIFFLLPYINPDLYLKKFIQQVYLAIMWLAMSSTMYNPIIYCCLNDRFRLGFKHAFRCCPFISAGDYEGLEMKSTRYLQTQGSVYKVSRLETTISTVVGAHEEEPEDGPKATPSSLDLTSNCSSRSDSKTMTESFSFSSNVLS

As to `Cc1ccc(C[C@@H]2CN(CCCNN3CCOCC3)CCN2C(=O)c2cc(Cl)cc(Cl)c2)cc1C.Cl.Cl` [Example 17, (2R)-1-(3,5-dichlorobenzoyl)-2-(3,4-dimethylbenzyl)-4-(N-morpholino-3-aminopropyl)piperazine dihydrochloride], the melting point was 71 °C (dec.). The inhibition at 1 mg/kg in data set [1] is > 80%.

Turning to `Cc1ccc(C[C@@H]2CN(CCCc3cn(C)cn3)CCN2C(=O)c2cc(C(F)(F)F)cc(C(F)(F)F)c2)cc1C.Cl.Cl` [Example 18, (2R)-1-[3,5-bis(trifluoromethyl)benzoyl]-2-(3,4-dimethylbenzyl)-4-[3-(1-methyl-1H-imidazol-4-yl)propyl]piperazine dihydrochloride], the melting point is 91 °C (dec.). Also, the inhibition at 1 mg/kg in data set [1] was > 80%.

Regarding `Cc1ccc(C[C@@H]2CN(CCN3CCOC[C@@H]3CO)CCN2C(=O)c2cc(C(F)(F)F)cc(C(F)(F)F)c2)cc1C.Cl.Cl` [80-(2), (2R)-1-[3,5-Bis(trifluoromethyl)benzoyl]-2-(3,4-dimethylbenzyl)-4-[2-((3S)-3-hydroxymethylmorpholino)ethyl]piperazine dihydrochloride], the melting point lay within 150 to 160 °C. In addition, in data set [1], the inhibition at 1 mg/kg is > 80%.

`CC1(C)COCCN1CC#CCN1CCN(C(=O)c2cc([N+](=O)[O-])cc(C(F)(F)F)c2)[C@H](Cc2c[nH]c3ccccc23)C1.Cl.Cl` [90-(3), (2R)-4-[4-(3,3-Dimethylmorpholino)-2-butynyl]-2-[(1H-indol-3-yl)methyl]-1-[3-nitro-5-(trifluoromethyl)benzoyl]piperazine dihydrochloride] registered a melting point of 198 to 220 °C. The inhibition at 1 mg/kg in data set [1] is > 80%.

On to `COC[C@@H]1COCCN1CCN1CCN(C(=O)c2cc(C(F)(F)F)cc(C(F)(F)F)c2)[C@H](Cc2ccc(C)c(C)c2)C1.Cl.Cl` [81-(4), (2R)-1-[3,5-Bis(trifluoromethyl)benzoyl]-2-(3,4-dimethylbenzyl)-4-[2-((3R)-3-methoxymethylmorpholino)ethyl]piperazine dihydrochloride], for which the melting point lay within 90 to 100 °C. Also, in data set [1], the inhibition at 1 mg/kg is > 80%.

On to `CN(C)c1cc(C(=O)N2CCN(CC#CCN3CCOCC3(C)C)C[C@H]2Cc2c[nH]c3ccccc23)cc(C(F)(F)F)c1.Cl.Cl` [90-(2), (2R)-1-[3-(Dimethylamino)-5-(trifluoromethyl)benzoyl]-4-[4-(3,3-dimethylmorpholino)-2-butynyl]-2-[(1H-indol-3-yl)methyl]piperazine dihydrochloride], for which the melting point was 210 to 225 °C. Moreover, in data set [1], the inhibition at 1 mg/kg was > 80%.

On to `Cc1ccc(C[C@@H]2CN(CC#CCN3CCOCC3)CCN2C(=O)c2cc(Cl)cc(Cl)c2)cc1C.Cl.Cl` [Example 15, (2R)-1-(3,5-dichlorobenzoyl)-2-(3,4-dimethylbenzyl)-4-(4-morpholino-2-butynyl)piperazine dihydrochloride], for which the melting point is 175 °C (dec.). Further, the inhibition at 1 mg/kg in data set [1] is > 80%.

`Cc1ccc(C[C@@H]2CN(C/C=C/c3cccnc3)CCN2C(=O)c2cc(C(F)(F)F)cc(C(F)(F)F)c2)cc1C.Cl.Cl` [6-(1), (2R)-1-[3,5-Bis(trifluoromethyl)benzoyl]-2-(3,4-dimethylbenzyl)-4-[(E)-3-(3-pyridyl)-2-propenyl]piperazine dihydrochloride] came in with a melting point of 170 to 174 °C. Moreover, the inhibition at 1 mg/kg in data set [1] was > 80%.

As to `Cc1ccc(C[C@@H]2CN(C/C=C/CN3CCOCC3)CCN2C(=O)c2cc(Cl)cc(Cl)c2)cc1C.Cl.Cl` [16-(2), (2R)-1-(3,5-Dichlorobenzoyl)-2-(3,4-dimethylbenzyl)-4-[(E)-4-morpholino-2-butenyl]piperazine dihydrochloride], the melting point was > 230 °C. In addition, in data set [1], the inhibition at 1 mg/kg was > 80%.

`CCOC[C@H]1COCCN1CCN1CCN(C(=O)c2cc(C(F)(F)F)cc(C(F)(F)F)c2)[C@H](Cc2ccc(C)c(C)c2)C1.Cl.Cl` [81-(3), (2R)-1-[3,5-Bis(trifluoromethyl)benzoyl]-2-(3,4-dimethylbenzyl)-4-[2-((3S)-3-ethoxymethylmorpholino)ethyl]piperazine dihydrochloride] had a melting point of 60 to 65 °C. For the same molecule, the inhibition at 1 mg/kg in data set [1] is > 80%.

As to `Cc1ccc(C[C@@H]2CN(CCN3CCOCC3(C)C)CCN2C(=O)c2cc(C(F)(F)F)cc(C(F)(F)F)c2)cc1C.Cl.Cl` [79-(2), (2R)-1-[3,5-Bis(trifluoromethyl)benzoyl]-2-(3,4-dimethylbenzyl)-4-[2-(3,3-dimethylmorpholino)ethyl]piperazine dihydrochloride], the melting point lay within 190 to 210 °C. In addition, in data set [1], the inhibition at 1 mg/kg is > 80%.

Regarding `CC1(C)COCCN1CC#CCN1CCN(C(=O)c2cc(C(F)(F)F)cc(C(F)(F)F)c2)C(Cc2cc3ccccc3[nH]2)C1.Cl.Cl` (centres unmarked) [89-(1), 1-[3,5-Bis(trifluoromethyl)benzoyl]-2-[(1H-indol-2-yl)methyl]-4-[4-(3,3-dimethylmorpholino)-2-butynyl]piperazine dihydrochloride], the melting point was determined as 185 °C. Further, the inhibition at 1 mg/kg in data set [1] is > 80%.

On to `COC[C@H]1COCCN1CCN1CCN(C(=O)c2cc(C(F)(F)F)cc(C(F)(F)F)c2)[C@H](Cc2ccc(C)c(C)c2)C1.Cl.Cl` [80-(4), (2R)-1-[3,5-Bis(trifluoromethyl)benzoyl]-2-(3,4-dimethylbenzyl)-4-[2-((3S)-3-methoxymethylmorpholino)ethyl]piperazine dihydrochloride], for which the melting point was in the range of 90 to 100 °C. Also, the inhibition at 1 mg/kg in data set [1] is > 80%.

Consider `COCC1(C)COCCN1CCN1CCN(C(=O)c2cc(C(F)(F)F)cc(C(F)(F)F)c2)[C@H](Cc2ccc(C)c(C)c2)C1.Cl.Cl` (stereo partly drawn) [81-(2), (2R)-1-[3,5-Bis(trifluoromethyl)benzoyl]-2-(3,4-dimethylbenzyl)-4-[2-(3-methoxymethyl-3-methylmorpholino)ethyl]piperazine dihydrochloride], for which the melting point fell in the range of 60 to 70 °C. In addition, in data set [1], the inhibition at 1 mg/kg is > 80%.

The molecule `COCC1(C)COCCN1CC#CCN1CCN(C(=O)c2cc(C(F)(F)F)cc(C(F)(F)F)c2)[C@H](Cc2ccc(C)c(C)c2)C1.Cl.Cl` (stereo partly drawn) [71-(1), (2R)-1-[3,5-Bis(trifluoromethyl)benzoyl]-2-(3,4-dimethylbenzyl)-4-[4-(3-methoxymethyl-3-methylmorpholino)-2-butynyl]piperazine dihydrochloride] displayed a melting point of 155 to 160 °C. Moreover, the inhibition at 1 mg/kg in data set [1] was > 80%.

`Cl.Cl.O=C(c1cc(C(F)(F)F)cc(C(F)(F)F)c1)N1CCN(C/C=C\c2cccnc2)C[C@H]1Cc1c[nH]c2ccccc12` [Example 5-(2), (2R)-1-[3,5-Bis(trifluoromethyl)benzoyl]-2-[(1H-indol-3-yl)methyl]-4-[(Z)-3-(3-pyridyl)-2-propenyl]piperazine dihydrochloride]: the melting point lay in the range of 165 to 177 °C. In data set [1], the inhibition at 1 mg/kg was > 80%.

`COC[C@@H]1CN(CC#CCN2CCN(C(=O)c3cc(C(F)(F)F)cc(C(F)(F)F)c3)[C@H](Cc3ccc(C)c(C)c3)C2)CCO1.Cl.Cl` [71-(5), (2R)-1-[3,5-Bis(trifluoromethyl)benzoyl]-2-(3,4-dimethylbenzyl)-4-[4-((2S)-2-methoxymethylmorpholino)-2-butynyl]piperazine dihydrochloride] displayed a melting point of 85 to 95 °C. Further, the inhibition at 1 mg/kg in data set [1] is > 80%.

Molecule `CC1(C)COCCN1CCN1CCN(C(=O)c2cc(C(F)(F)F)cc(C(F)(F)F)c2)[C@H](Cc2c[nH]c3ccccc23)C1.Cl.Cl` [79-(1), (2R)-1-[3,5-Bis(trifluoromethyl)benzoyl]-4-[2-(3,3-dimethylmorpholino)ethyl]-2-[(1H-indol-3-yl)methyl]piperazine dihydrochloride] registered a melting point of 247 to 258 °C. In addition, in data set [1], the inhibition at 1 mg/kg was > 80%.

Consider `COC[C@H]1CN(CCN2CCN(C(=O)c3cc(C(F)(F)F)cc(C(F)(F)F)c3)[C@H](Cc3ccc(C)c(C)c3)C2)CCO1.Cl.Cl` [81-(5), (2R)-1-[3,5-Bis(trifluoromethyl)benzoyl]-2-(3,4-dimethylbenzyl)-4-[2-((2R)-2-methoxymethylmorpholino)ethyl]piperazine dihydrochloride], for which the melting point was in the range of 160 to 170 °C. Also, the inhibition at 1 mg/kg in data set [1] was > 80%.
